From ChEMBL document CHEMBL5126616, “Therapeutic and Effective CURE-PRO Molecules for E3 Ligase-Mediated Targeted Protein Degradation” (ACS Med Chem Lett, 2022) come the findings set out here.

Molecules are shown by their SMILES.

Assay type in all cases: protein assay
Set-up in all cases: concentration or dose not given beside the values

The target of test [1] is T1, Protein cereblon/Bromodomain-containing protein 4 (Homo sapiens) (UniProt O60885+Q96SW2). Kind of test: PROTAC activity at CRBN/BRD4 (unknown origin) assessed as BRD4 degradation in presence of N-((2-(2,6-dioxopiperidin-3-yl)-1,3-dioxoisoindolin-4-yl)methyl)-2,3- dihydroxy benzamide (CRB-N8047) by Western blot analysis. For orientation: Immunoblotting shows a protein as a band on a membrane.
T1 sequence (Q96SW2 whole entry, looked up, other chains not shown): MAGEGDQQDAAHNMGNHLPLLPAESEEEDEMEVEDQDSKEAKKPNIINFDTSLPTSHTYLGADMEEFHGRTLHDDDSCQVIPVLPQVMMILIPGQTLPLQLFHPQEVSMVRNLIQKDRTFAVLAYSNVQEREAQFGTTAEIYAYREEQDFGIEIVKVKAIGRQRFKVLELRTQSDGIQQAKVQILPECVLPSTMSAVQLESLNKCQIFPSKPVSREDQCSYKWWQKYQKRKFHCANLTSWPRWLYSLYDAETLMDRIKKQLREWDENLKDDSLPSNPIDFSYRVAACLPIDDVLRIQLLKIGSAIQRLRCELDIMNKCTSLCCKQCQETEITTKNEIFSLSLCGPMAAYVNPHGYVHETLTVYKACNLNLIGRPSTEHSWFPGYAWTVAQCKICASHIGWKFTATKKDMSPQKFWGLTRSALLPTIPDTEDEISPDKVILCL

Test [2] addresses T1, Protein cereblon/Bromodomain-containing protein 4 (Homo sapiens). The experiment in a line: PROTAC activity at CRBN/BRD4 (unknown origin) assessed as BRD4 degradation in presence of N-((2-(2,6-dioxopiperidin-3-yl)-1,3-dioxoisoindolin-4-yl)methyl)-3,4- dihydroxy benzamide (CRB-N8046) by Western blot analysis.
Test [3] has the same target. The experiment in a line: PROTAC activity at CRBN/BRD4 (unknown origin) assessed as BRD4 degradation in presence of (1S,4R,5R,6S)-N-((2-(2,6-dioxopiperidin-3-yl)-1,3-dioxoisoindolin-4-yl)methyl)-5,6- dihydroxy bicyclo[2.2.1]heptane-2-carboxamide (CRB-N8066) by Western blot analysis.

Consider `COc1ccc2c(c1)C(c1ccc(Cl)cc1)=N[C@@H](CC(=O)NCCc1ccc(B(O)O)cc1)c1nnc(C)n1-2`, for which the Activity in test [1] worked out at 30%.

In the case of `CCNC(=O)C[C@@H]1N=C(c2ccc(Cl)cc2)c2cc(OCCCCC(=O)Nc3cccc(B(O)O)c3)ccc2-n2c(C)nnc21`, the Activity in test [2] and in test [3] was 30% throughout.

Consider `COc1ccc2c(c1)C(c1ccc(Cl)cc1)=N[C@@H](CC(=O)NCCNC(=O)/C=C/c1cccc(B(O)O)c1)c1nnc(C)n1-2`, for which the Activity in test [1] and in test [3] was 30% in each case.

For the compound `COc1ccc2c(c1)C(c1ccc(Cl)cc1)=N[C@@H](CC(=O)NCCCCNC(=O)c1ccc(B(O)O)cc1)c1nnc(C)n1-2`, the Activity in test [1] and in test [3] was 30% in each case.

With `COc1ccc2c(c1)C(c1ccc(Cl)cc1)=N[C@@H](CC(=O)NCCCCCNC(=O)c1cccc(B(O)O)c1)c1nnc(C)n1-2`, the Activity in test [2] and in test [3] was 30% each time.

On to `COc1ccc2c(c1)C(c1ccc(Cl)cc1)=N[C@@H](CC(=O)NCCCCCNC(=O)c1ccc(B(O)O)cc1)c1nnc(C)n1-2`, for which the Activity in test [3] is 30%.

For `COc1ccc2c(c1)C(c1ccc(Cl)cc1)=N[C@@H](CC(=O)NCCNC(=O)/C=C/c1ccc(B(O)O)cc1)c1nnc(C)n1-2`, the Activity in test [2], in test [1] and in test [3] was 30% each time.

For the compound `COc1ccc2c(c1)C(c1ccc(Cl)cc1)=N[C@@H](CC(=O)NCCCNC(=O)c1cccc(B(O)O)c1)c1nnc(C)n1-2`, the Activity in test [2], in test [1] and in test [3] was 30% throughout.

On to `COc1ccc2c(c1)C(c1ccc(Cl)cc1)=N[C@@H](CC(=O)NCc1cccc(B(O)O)c1)c1nnc(C)n1-2`, for which the Activity in test [2] and in test [1] was 30% each time.

As for `COc1ccc2c(c1)C(c1ccc(Cl)cc1)=N[C@@H](CC(=O)NCc1ccc(B(O)O)cc1)c1nnc(C)n1-2`, in test [1], the Activity was 30%.
